Experimental findings from US20090029975A1, “1,3-BENZOTHIAZINONE DERIVATIVE AND USE THEREOF” (TAKEDA PHARMACEUTICAL COMPANY LIMITED, priority 2005, published 2009) are described below.

Each structure is given as a SMILES string. Where only a bound is given, the exact number is not on record here.

The test system of data set [1] is ARE of rat glutathione S-transferase Ya subunit gene. The data set is described as follows: Assay for ARE-dependent transcriptional activation activity (luciferase reporter pGL3-ARE in rat H9c2 cells). Particulars: rat H9c2 cells transfected with pGL3-ARE; about 24 hours incubation with compound; compound-free group = 100%. The data set is classed as cell-based. Here is the method:
Rat H9c2 cells were suspended in Dulbecco's Modified Eagle Medium (10% FBS, D-MEM) supplemented with 5% heat-inactivated fetal calf serum to 7×10^4 cells/ml and a 18 ml aliquot was seeded on a Petri dish for cell culture, followed by incubation in 5% CO2 at 37° C. for about 16 hours. ARE ([…]; SEQ ID NO: 1) of rat glutathione S-transferase Ya subunit gene was incorporated into pGL3-Promoter Vector (manufactured by Promega Corp.) and the resulting luciferase reporter vector pGL3-ARE was transfected to the cells using FuGENE6 (Transfection reagent: manufactured by Roche), followed by additional incubation for about 7 hours. After completion of the incubation, the cells were recovered and suspended in 10% FBS-containing D-MEM to 1×10^5 cells/ml. A 100 μl aliquot was seeded on each well of a 96-well plate, followed by incubation in 5% CO2 at 37° C. for about 17 hours. Next, the cells were washed with D-MEM to remove serum, and D-MEM containing a test compound (compound obtained in EXAMPLE 2, 8, 10, 12, 22 or 23) was added to the cells, followed by incubation in 5% CO2 at 37° C. for about 24 hours. After completion of the incubation, 801 each of Steady-Glo Reagent (manufactured by Promega Corp.) was added to each well. After allowing to stand at room temperature for 40 minutes, fluorescence levels by luciferase were determined using a WALLAC ARVO SX (manufactured by Perkin-Elmer). Taking the emitted luminescence of test compound-free group as 100%, the ARE-dependent transcriptional activation was shown in terms of the concentration of test compound, which caused to emit the luminescence of 200% (EC200: μM).
A general note: A reporter such as luciferase makes a cellular process visible.

A further data set addresses T1, human PPARα (Homo sapiens, UniProt Q07869).
T1 construct: expressed in transfected cells; host or cells: COS-1 cells
T1 sequence (Q07869 1-468): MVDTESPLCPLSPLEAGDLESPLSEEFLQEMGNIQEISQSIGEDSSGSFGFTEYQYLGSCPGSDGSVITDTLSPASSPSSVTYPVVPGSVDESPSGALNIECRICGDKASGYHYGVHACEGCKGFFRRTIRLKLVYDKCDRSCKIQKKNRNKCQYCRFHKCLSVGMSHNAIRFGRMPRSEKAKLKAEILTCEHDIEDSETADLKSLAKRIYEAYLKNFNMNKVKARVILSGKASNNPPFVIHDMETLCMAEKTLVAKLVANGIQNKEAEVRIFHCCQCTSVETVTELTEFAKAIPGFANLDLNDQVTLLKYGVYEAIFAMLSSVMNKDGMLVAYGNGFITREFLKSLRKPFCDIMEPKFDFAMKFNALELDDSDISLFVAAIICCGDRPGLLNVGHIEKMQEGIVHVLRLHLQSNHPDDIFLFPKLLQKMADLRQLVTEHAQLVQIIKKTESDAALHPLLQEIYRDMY
T1 sequence (P19793 1-462 partner): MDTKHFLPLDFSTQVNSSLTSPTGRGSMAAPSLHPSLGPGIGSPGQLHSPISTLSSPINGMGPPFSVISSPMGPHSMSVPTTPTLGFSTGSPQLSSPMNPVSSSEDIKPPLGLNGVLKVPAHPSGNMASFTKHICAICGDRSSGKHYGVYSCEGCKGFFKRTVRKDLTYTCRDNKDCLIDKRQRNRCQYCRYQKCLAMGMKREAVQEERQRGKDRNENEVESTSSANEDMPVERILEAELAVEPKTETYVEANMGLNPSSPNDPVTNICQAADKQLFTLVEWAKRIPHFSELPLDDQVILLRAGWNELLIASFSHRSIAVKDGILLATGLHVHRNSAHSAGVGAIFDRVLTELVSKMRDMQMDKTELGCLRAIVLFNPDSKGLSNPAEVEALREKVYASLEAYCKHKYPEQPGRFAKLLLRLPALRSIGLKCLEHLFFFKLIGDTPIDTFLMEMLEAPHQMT
Kind of data set: PPARα assay: PPRE-dependent transcriptional activation activity (luciferase reporter in COS-1 cells transfected with PPARα and RXRα). Particulars: COS-1 cells transfected with PPARα and RXRα expression vectors and pGL3-PPRE4-Tk; about 42 hours incubation with compound; compound-free group = 100%. The data set is classed as cell-based. The protocol:
COS-1 cells were suspended in Dulbecco's Modified Eagle Medium (10% FBS, D-MEM) supplemented with 10% heat-inactivated fetal calf serum to 1×10^5 cells/ml and a 25 ml aliquot was seeded on a 75 cm^2 cell culture flask, followed by incubation in 5% CO2 at 37° C. for about 15 hours. PPARα expression vector pMCMV-neo-rPPARα and RXRα expression vector pMCMV-neo-rRXRα, in which human PPARα gene and human RXRα gene were inserted into pMCMV-neo (manufactured by Promega Corp.) respectively, and Luciferase reporter vector pGL3-PPRE4-Tk, in which four PPREs (aggacaaaggtca; SEQ ID NO: 2) were inserted into pGL3-Promoter Vector (manufactured by Promega Corp.) in tandem, were transfected to the cells using FuGENE6 (Transfection reagent: manufactured by Roche), and then incubation for about 24 hours. After completion of the incubation, the cells were recovered and suspended in 0.1% bovine serum albumin (Sigma)-containing D-MEM to 5×10^4 cells/ml. A 100 μl aliquot was seeded on each well of a 96-well plate, followed by incubation in 5% CO2 at 37° C. for about 4 hours. Next, D-MEM containing a test compound (compound obtained in EXAMPLE 2, 8, 10 or 12) was added thereto, followed by incubation in 5% CO2 at 37° C. for about 42 hours. After completion of the incubation, a 801 aliquot was added to each well of Steady-Glo Reagent (manufactured by Promega Corp.). After allowing to stand for 30 minutes at room temperature, fluorescence levels by luciferase were determined using a WALLAC ARVO SX (manufactured by Perkin-Elmer). Taking the emitted luminescence of test compound-free group as 100%, the PPRE-dependent transcriptional activation was shown in terms of the concentration of test compound, which caused to emit the luminescence of 200% (EC200: μM).

What is called melting point is the temperature of the solid-liquid transition.

In the case of `CS(=O)(=O)c1cc(CCC(=O)O)nc(-c2nc(=O)c3ccccc3s2)c1` [EXAMPLE 2, 3-[6-(4-Oxo-4H-1,3-benzothiazin-2-yl)-4-(methylsulfonyl)pyridin-2-yl]propanoic acid], in data set [1], the “EC200 (concentration of test compound causing luminescence of 200% of the test compound-free group), ARE-dependent transcriptional activation” value is 1.3 µM. Moreover, on human PPARα, the “EC200 (concentration of test compound causing luminescence of 200% of the test compound-free group), PPRE-dependent transcriptional activation” value was greater than 100 µM.
With `CS(=O)(=O)c1cc(CCC(=O)O)nc(-c2nc(=O)c3ccc(Cl)cc3s2)c1` [EXAMPLE 8, 3-[6-(7-Chloro-4-oxo-4H-1,3-benzothiazin-2-yl)-4-(methylsulfonyl)pyridin-2-yl]propanoic acid], the melting point was 228.8 to 228.9 °C. In data set [1], the “EC200 (concentration of test compound causing luminescence of 200% of the test compound-free group), ARE-dependent transcriptional activation” value was 0.94 µM. The “EC200 (concentration of test compound causing luminescence of 200% of the test compound-free group), PPRE-dependent transcriptional activation” value at human PPARα was greater than 100 µM.
The matching figures for `CS(=O)(=O)c1cc(CCC(=O)O)nc(-c2nc(=O)c3ccc(F)cc3s2)c1` [EXAMPLE 10, 3-[6-(7-fluoro-4-oxo-4H-1,3-benzothiazin-2-yl)-4-(methylsulfonyl)pyridin-2-yl]propanoic acid]: 235.8 to 236.2 °C, 1.7 µM and greater than 100 µM.
For the molecule `Cc1ccc2c(=O)nc(-c3cc(S(C)(=O)=O)cc(CCC(=O)O)n3)sc2c1` [EXAMPLE 12, 3-[6-(7-Methyl-4-oxo-4H-1,3-benzothiazin-2-yl)-4-(methylsulfonyl)pyridin-2-yl]propanoic acid], the melting point is 238.9 to 239.1 °C. Besides, in data set [1], the “EC200 (concentration of test compound causing luminescence of 200% of the test compound-free group), ARE-dependent transcriptional activation” value came to 1.6 µM. Also, the “EC200 (concentration of test compound causing luminescence of 200% of the test compound-free group), PPRE-dependent transcriptional activation” value on human PPARα was greater than 100 µM.
The molecule `CCOC(=O)CCc1cc(S(C)(=O)=O)cc(-c2nc(=O)c3ccc(Cl)cc3s2)n1` [EXAMPLE 13, Ethyl 3-[6-(7-chloro-4-oxo-4H-1,3-benzothiazin-2-yl)-4-(methylsulfonyl)pyridin-2-yl]propanoate] registered a melting point of 240 to 240.2 °C.
With `COC(=O)CCc1cc(S(C)(=O)=O)cc(-c2nc(=O)c3ccc(Cl)cc3s2)n1` [EXAMPLE 17, Methyl 3-[6-(7-chloro-4-oxo-4H-1,3-benzothiazin-2-yl)-4-(methylsulfonyl)pyridin-2-yl]propanoate], the melting point is 203.4 to 203.6 °C.
As for `CCN(CC)CCOC(=O)CCc1cc(S(C)(=O)=O)cc(-c2nc(=O)c3ccc(Cl)cc3s2)n1` [EXAMPLE 22, 2-(Diethylamino)ethyl 3-[6-(7-chloro-4-oxo-4H-1,3-benzothiazin-2-yl)-4-(methylsulfonyl)pyridin-2-yl]propanoate], the melting point lay in the range of 150.5 to 151.5 °C. In addition, in data set [1], the “EC200 (concentration of test compound causing luminescence of 200% of the test compound-free group), ARE-dependent transcriptional activation” value was 0.61 µM.
Consider `CCN(CC)C(=O)COC(=O)CCc1cc(S(C)(=O)=O)cc(-c2nc(=O)c3ccc(Cl)cc3s2)n1` [EXAMPLE 23, 2-(Diethylamino)-2-oxoethyl 3-[6-(7-chloro-4-oxo-4H-1,3-benzothiazin-2-yl)-4-(methylsulfonyl)pyridin-2-yl]propanoate], for which the “EC200 (concentration of test compound causing luminescence of 200% of the test compound-free group), ARE-dependent transcriptional activation” value in data set [1] was found to be 0.6 µM.
For `CC(C)(C)OC(=O)CCc1cc(S(C)(=O)=O)cc(-c2nc(=O)c3ccc(Cl)cc3s2)n1` [compound 7, Tert-butyl 3-[6-(7-chloro-4-oxo-4H-1,3-benzothiazin-2-yl)-4-(methylsulfonyl)pyridin-2-yl]propanoate], the melting point was 184.3 to 184.5 °C.
For `CC(C)(C)OC(=O)CCc1cc(S(C)(=O)=O)cc(-c2nc(=O)c3ccc(F)cc3s2)n1` [compound 9, Tert-butyl 3-[6-(7-fluoro-4-oxo-4H-1,3-benzothiazin-2-yl)-4-(methylsulfonyl)pyridin-2-yl]propanoate], the melting point lay within 177.6 to 178 °C.
Same read-out and setting: to `Cc1ccc2c(=O)nc(-c3cc(S(C)(=O)=O)cc(CCC(=O)OC(C)(C)C)n3)sc2c1` [compound 11, Tert-butyl 3-[6-(7-methyl-4-oxo-4H-1,3-benzothiazin-2-yl)-4-(methylsulfonyl)pyridin-2-yl]propanoate] belongs 178 to 178.4 °C; to `CCCOC(=O)CCc1cc(S(C)(=O)=O)cc(-c2nc(=O)c3ccc(Cl)cc3s2)n1` [compound 19, Propyl 3-[6-(7-chloro-4-oxo-4H-1,3-benzothiazin-2-yl)-4-(methylsulfonyl)pyridin-2-yl]propanoate], 235.4 to 235.5 °C; to `Cc1oc(=O)oc1COC(=O)CCc1cc(S(C)(=O)=O)cc(-c2nc(=O)c3ccc(Cl)cc3s2)n1` [compound 20, (5-Methyl-2-oxo-1,3-dioxolen-4-yl)methyl 3-[6-(7-chloro-4-oxo-4H-1,3-benzothiazin-2-yl)-4-(methylsulfonyl)pyridin-2-yl]propanoate], 183.1 to 183.2 °C.
Still for that read-out and setting: under `CS(=O)(=O)c1cc(CCC(=O)OCC(O)CO)nc(-c2nc(=O)c3ccc(Cl)cc3s2)c1` (stereo not shown) [compound 21, 2,3-Dihydroxypropyl 3-[6-(7-chloro-4-oxo-4H-1,3-benzothiazin-2-yl)-4-(methylsulfonyl)pyridin-2-yl]propanoate] stands 240 to 241 °C.
